Where a name gives a salt, the structure may show the parent alone.

What is called melting point is the temperature, or range, at which the solid turns liquid. Turning to `O=c1[nH]c2c(O)cccc2c(=O)n1CCCN1CC=C(c2ccc(Cl)cc2)CC1` (as salt: hydrobromid), the melting point fell in the range of 284 to 286 °C.

Turning to `O=c1[nH]c2cc(F)ccc2c(=O)n1CCCN1CC=C(c2ccc(Cl)cc2)CC1` (as salt: maleate), the melting point was 197 to 198 °C.

`O=c1[nH]c2cccc(Cl)c2c(=O)n1CCCN1CC=C(c2ccc(Cl)cc2)CC1` (as salt: maleate) had a melting point of 190 to 194 °C.

In turn, `O=c1[nH]c2ccc(Cl)cc2c(=O)n1CCCN1CC=C(c2ccc(Cl)cc2)CC1` (as salt: maleate) had a melting point of 197 to 198 °C.

Regarding `O=c1[nH]c2cc(Cl)ccc2c(=O)n1CCCN1CC=C(c2ccc(Cl)cc2)CC1` (as salt: maleate), the melting point lay within 225 to 227 °C.

`O=c1[nH]c2c(Cl)cc(Cl)cc2c(=O)n1CCCN1CC=C(c2ccc(Cl)cc2)CC1` (as salt: maleate) yielded a melting point of 197 to 199 °C.

In the case of `Cc1cccc2[nH]c(=O)n(CCCN3CC=C(c4ccc(Cl)cc4)CC3)c(=O)c12` (as salt: maleate), the melting point lay in the range of 175 to 178 °C.

`Cc1ccc2c(=O)n(CCCN3CC=C(c4ccc(Cl)cc4)CC3)c(=O)[nH]c2c1` (as salt: maleate) displayed a melting point of 199 to 201 °C.

`Cc1cccc2c(=O)n(CCCN3CC=C(c4ccc(Cl)cc4)CC3)c(=O)[nH]c12` (as salt: maleate) registered a melting point of 215 to 217 °C.

Turning to `Cc1ccc(C)c2c(=O)n(CCCN3CC=C(c4ccc(Cl)cc4)CC3)c(=O)[nH]c12` (as salt: maleate), the melting point is 212 to 220 °C.

`Cc1c(Cl)ccc2c(=O)n(CCCN3CC=C(c4ccc(Cl)cc4)CC3)c(=O)[nH]c12` (as salt: maleate) had a melting point of 208 to 210 °C.

The compound `Cc1cc(Br)c2[nH]c(=O)n(CCCN3CC=C(c4ccc(Cl)cc4)CC3)c(=O)c2c1` (as salt: maleate) yielded a melting point of 212 to 214 °C.

`O=c1[nH]c2ccc([N+](=O)[O-])cc2c(=O)n1CCCN1CC=C(c2ccc(Cl)cc2)CC1` (as salt: maleate) gave a melting point of 205 to 207 °C.

Regarding `O=c1[nH]c2cc([N+](=O)[O-])ccc2c(=O)n1CCCN1CC=C(c2ccc(Cl)cc2)CC1` (as salt: maleate), the melting point was in the range of 210 to 212 °C.

Regarding `Cc1ccc(C2=CCN(CCCn3c(=O)[nH]c4cccc(C)c4c3=O)CC2)cc1` (as salt: maleate), the melting point lay in the range of 165 to 170 °C.

Compound `O=c1[nH]c2c(Cl)cccc2c(=O)n1CCCN1CC=C(c2cccc(C(F)(F)F)c2)CC1` (as salt: maleate) had a melting point of 205 to 210 °C.

Compound `Cc1cccc2[nH]c(=O)n(CCCN3CC=C(c4cccc(C(F)(F)F)c4)CC3)c(=O)c12` (as salt: maleate) showed a melting point of 158 to 160 °C.

The values are drawn from US6521630B1, “Tetrahydroquinazoline-2,4-diones and therapeutic uses thereof” (Pfizer Inc., priority 1999, dated 2003).
